Entries after “also recorded” stand apart in the source; their conditions may differ.

One series relates to SAPK/JNK. The series can be described thus: SAPK/JNK activation in PC12 cells after NGF withdrawal, Western blot. It is filed as cell-based, rat. The following applies: added with PGE1. The procedure:
4) Intercellular signals via SAPK/JNK Stress-activated protein kinase/Jun N-terminal kinase (abbreviated SAPK/JNK) is associated with apoptosis induction. Thus, intercellular signals within cells via SAPK/JNK were investigated based upon effects with respect to variations in SAPK/JNK activity.
The present experiment was performed with Western blot analysis. Individual additives were added to cell culturing medium for PC12 cells in accordance with the aforementioned experiment. Culturing was performed for 1-4 hrs after withdrawal of NGF. PC12 cells were lysed with a buffer solution, centrifuged, and the supernatant of cell lysate was prepared. After said supernatant was incubated with JNK 1 polyclonal antibodies (Santa Cruz Biotechnology) at 4° C. for 1 hr. Protein A sepharose was added to it. The resultant was incubated for 1 hr and the immunoprecipitate as described below was provided. […] of cell lysate was conducted with SDS-PAGE electrophoresis, and transferred to a nylon membrane (Amersham Pharmacia Biotech). Blotting of phosphorylated (active) JNK antibodies (Santa Cruz Biotechnology) was performed with this membrane, and bands were detected in accordance with the instruction manual. Intercellular signals within cells were amplified by chemiluminescence and auto radioactivity methods (FCL, Amersham Pharmacia Biotech).
(In western blotting, separated proteins are transferred to a membrane and probed.)

The target in a further series is T1, PGT (Rattus norvegicus, UniProt Q00910).
T1 construct: endogenous in cells; host or cells: differentiated PC12 cells
Put plainly: Uptake of tritium-labelled PGE1 into differentiated PC12 cells through PGT. The format is cell-based. The procedure: 1) Differentiated PC12 cells and tritium-labelled PGE1 (added concentration: 0.1 μM) were subjected to 10 mins of incubation at 37° C. Afterwards, the cells were washed with ice-cold phosphate buffered saline containing 5 g/l of bovine serum albumin and next washed with ice-cold phosphate buffered saline. Then, radioactivity was measured. The amount of PGE1 uptake into PC12 cells was calculated.
2) Bromcresol green (hereinafter noted as “BrCG”), which is a PGT inhibitor, was placed together in the culture medium at the addition of PGE1. Afterwards, treatment was conducted in the same manner as mentioned in 1).
3) The antisense oligonucleotide specific to PGT cDNA was designed as follows:
Moreover, said antisense was thioate modified. Using Lipofectin (Gibco), PC12 underwent transfection during 2 days prior to the addition of PGE1. Afterwards, treatment was conducted in the same manner as mentioned in 1).

Series [1] concerns rat cerebral cortical neurons. The series can be described thus: Apoptosis induced by amyloid beta peptide in rat cerebral cortical neurons, Hoechst 33342. It is filed as cell-based. The following applies: for Inhibition of apoptosis induction (%): Experiment 7, test drug added with Aged-Aβ25-35. The procedure:
The cortex region of embryonic day 17 or 18 rat cerebrum was extracted on ice. Cells were dispersed using a neuron dispersal solution (Sumilon) after sectioning. Afterwards, cells were dispersed to a density of 1.5×10^5 cells/cm^2 in a culturing flask that was coated with polyethyleneimine beforehand. After 4 days of culturing, the following experiment was provided. Therefore, as the culture medium, Neurobasal medium (Gibco) adding with B27 supplement (1/50 volume), 2-mercaptoethanol (27.5 μM), L-glutamic acid (25 μM), and glutamine (0.5 mM) was used.
Amyloid beta peptide 25-35 (Aβ25-35) was dissolved in distilled water to a concentration of 1 mM, incubated for 1 week at about 37° C., and Aged-Aβ25-35 was prepared. The induction of apoptosis in neuron was performed by the replacement of the aforementioned culture medium (with the exception of L-glutamicacid) containing 10 μM Aged-Aβ25-35.
4) It was investigated that the suppressing effect of PGE1 on apoptosis induced by amyloid beta peptide. After dissolution of PGE1 in ethanol, when the aforementioned 2) Aged-Aβ25-35 was added to the culture medium, simultaneously PGE1 solution was added to it. The final concentration thereof was 1 μM.
Cells were washed with PBS (−) at 24 hrs after induction of apoptosis and fixed for 30 mins at room temperature using a 1% glutaraldehyde solution (in PBS). Next, cell were washed with PBS (−) two times and followed by incubation with 1 mM Hoechst 33342 solution (in PBS) for 2 mins. Afterwards, observation of nuclear chromatin morphology was conducted using a fluorescence microscope with 4 arbitrary visual fields. Normal cells and apoptotic cells (cell where chromatin fragmentation or condensation was appeared) were counted, and the ratio was calculated as the incidence of apoptosis. The n was 3.
6) The relationship between PGT inhibitors and apoptosis induced by amyloid beta peptide was investigated. BrCG, which is a PGT inhibitor, with a final concentration of 60 μM was added simultaneously with PGE1 but other manners were in accordance with the aforementioned ones in 1)-5).
It was investigated that the influence of PGT antisense on the inhibitory effect of PGE1 against apoptosis induced by amyloid beta peptide. PGT antisense was used as it is with regard to the oligonucleotide in Experiment 3. The addition concentration thereof was 1.5 μM. Incidence of apoptosis was performed in accordance with Experiment 5. Then was 3.
1) Drugs having an inhibitory activity against induction of apoptosis by amyloid beta peptide were investigated. After dissolving test drugs (PGE1, PGK1, PGK2, and bicyclo PGE2) in ethanol, when Aged-Aβ25-35 was added to the culture medium, simultaneously test drug solution were added to it. But other manners were in accordance with Experiment 5. Ratio of normal cells and apoptotic cells allowed calculation of the rate of inhibition of apoptosis induction.

For the next series, the system named is NRK52E cells. Put plainly: Apoptosis induced by NO donor GSNO in NRK52E kidney cells. It is filed as cell-based, rat. The following applies: for Effect on apoptosis in kidney cells (in words): NO donor GSNO. The procedure:
1) Apoptosis was induced by NO (nitrogen monoxide) in kidney cells. NRK52E cells, which are established from a rat renal tubule epithelial cell line, mainly derived from distal were cultured for 24 hours with a chamber slide that was coated with type-I collagen. Afterwards, the cultured medium was changed to a serum-free medium, and apoptosis was induced by addition of NOC12 (0.4 mM) or S-nitroso L-glutathione (GSNO: 1 mM), which are NO donors.
4) Inhibitory effect of PGE1 to the induction of apoptosis in kidney cells was investigated PGE1 was added simultaneously with the addition of a NO donor to a final concentration of 1 or 10 μM. After 24 hrs, cells were fixed with a 1% glutaraldehyde solution and stained with Hoechst 33342. Three visual fields were selected arbitrarily per slide, and the ratio of the cells count where nuclear fragmentation and condensation appeared was calculated with respect to the total cells in the field (magnification: 400x). The n was 5.
5) The relationship between PGT inhibitors and kidney cell apoptosis induced by GSNO was examined. With a final concentration of BrCG, which is a PGT inhibitor, of 60 μM, manners other than simultaneous addition with GSNO and PGE1 were in accordance with the aforementioned ones in 4). The PGE1 final concentration was 1 μM. The n was 3.
1) Drugs having suppressing activity on apoptosis inducted in kidney cells by an NO donor were investigated. PGK1 and bicyclo PGE2 were used as test drugs, but other manners were in accordance with Experiment 8. The final concentration of the test drugs was 1 μM. The n was 5.
2) It was investigated the effects of a PGT inhibitor on the apoptosis-suppressing activity of PGK1 and bicyclo PGE2 in kidney cells. With a final concentration of BrCG, which is a PGT inhibitor, of 60 μM, manners other than simultaneous addition of GSNO and test drugs were in accordance with the aforementioned methods in 1). The n was 4.

The nature of series [2]: Hypotensive effect in anesthetized normal rats, mean blood pressure. It is filed as in vivo, rat. Details: Decrease in blood pressure: unit not given here. The following applies: for Decrease in blood pressure: 100 μg/kg body weight into caudal artery, mean blood pressure before and after, n 3; for Hypotensive effect (in words): dose that suppresses apoptosis sufficiently. The procedure: 2) The hypotensive effect of the test drugs was examined. After anesthetizing normal rats (male, body weight of about 300 g) with intraperitoneal administration of Nembutal, the dorsal region was fixed. Next, a cannula was inserted in the carotid artery and blood pressure was measured through a transducer (Nihon Kohden Corporation); simultaneous recording was made in combination with a polygraph (Nihon Kohden Corporation). After dissolving the test drugs in ethanol, and diluted (x200) with saline. Administration was given in the caudal artery in a dose of 100 μg/kg body weight. The mean blood pressure (MBP) was measured. The decrease in blood pressure was calculated from the measured values before and after administration. The n was 3 per group.

Series [3] concerns differentiated PC12 cells. The series can be described thus: Induction of apoptosis by PGT antisense in differentiated PC12 cells, TUNEL staining. The format is cell-based, rat. The procedure: 1) Rat adrenal pheochromocytoma PC12 cells (obtained by: ATCC; importer: Dainippon Pharmaceutical) was cultured in a Neurobasal culture medium containing mouse β NGF (100 ng/ml), N2 supplement (1%), and TIP (5 μg/ml transferrin, 5 μg/ml insulin, and 10 ng/ml progesterone). Differentiation of neuron was performed.
2) Then, antisense solution prepared in Example 6 is added (final concentration: 600 nM) and cultured for 2 days. As a negative control, Lipofectin in alone is added in the same manner and cultured for the same period of time. Apoptosis detection is performed by TUNEL staining after cell fixation (room temperature for 30 min) with a 10% neutral formalin buffer solution. Observation was made from 6 arbitrary visual fields using a light microscope. Total cells and TUNEL (apoptosis)—positive cells were counted, and the incidence of apoptosis was calculated.

The mark [4] stands for this setting: Table 13, GSNO, test drug 1 μM, n 5.
Where [5] appears, read: Tables 14 and 15, GSNO, test drug alone, n 4.

On to `Cc1c(C2(c3cc(Br)c(O)c(Br)c3C)OS(=O)(=O)c3ccccc32)cc(Br)c(O)c1Br` [BrCG, Bromcresol green], for which the “Effect on PGE1 suppression of SAPK/JNK activation (in words)” value with SAPK/JNK is “inhibited PGE1-suppressing effect”. Also, the “Amount of PGE1 uptake” value at PGT (PGE1 0.1 μM with BrCG 1 μM) is given as 60 ± 15 fmol/mg protein/10 mins; at PGT (PGE1 0.1 μM with BrCG 1 μM (second row, printed so)) it was 20 ± 8 fmol/mg protein/10 mins. Besides, the “Effect on PGE1 inhibition of amyloid beta peptide-induced apoptosis (in words)” value in series [1] (BrCG 60 μM with PGE1) was “inhibited said effect of PGE1”. Moreover, the “Effect on apoptosis-suppressing activity of the test drug in kidney cells (in words)” value in the series with NRK52E cells (BrCG 60 μM, GSNO) is reported as “inhibited apoptosis-suppressing activity by PGE1; also recorded: partially inhibited apoptosis-suppressing effect”.
As for `CCCCC[C@H](O)/C=C/[C@H]1C(=O)CC(=O)[C@@H]1CCCCCCC(=O)O` [PGK1], in series [1], the “Effect on apoptosis induced by amyloid beta peptide (in words)” value (shortened to “Effect on apoptosis induced”) is reported as “displayed activity to suppress apoptosis of neurons” and the “Inhibition of apoptosis induction (%)” value is listed as 45.4%. Moreover, the “Effect on apoptosis in kidney cells (in words)” value with NRK52E cells is “suppressed apoptosis induced by GSNO in kidney cells”. Besides, the “Incidence of apoptosis (%)” value in the series on NRK52E cells (setting [4]) amounted to 8 ± 1 %. Also, the “Incidence of apoptosis (%)” value in the series with NRK52E cells (setting [5]) was 8 ± 1%. Moreover, in series [2], the “Decrease in blood pressure” value is given as −5 and the “Hypotensive effect (in words)” value is given as “substantially causes no decrease in blood pressure”.
`CCCCC[C@H](O)/C=C/[C@H]1C(=O)CC(=O)[C@@H]1C/C=C\CCCC(=O)O` [PGK2]: in series [1], the “Effect on apoptosis induced” value was “displayed activity to suppress apoptosis of neurons” and the “Inhibition of apoptosis induction (%)” value worked out at 36.2%. Besides, in series [2], the “Decrease in blood pressure” value is listed as “+2” and the “Hypotensive effect (in words)” value is reported as “substantially causes no decrease in blood pressure”.
Turning to `CCCCC1C(=O)CC[C@H]2[C@@H]1CC(=O)[C@@H]2C/C=C\CCCC(=O)O` (stereo partly shown) [bicyclo PGE2], in series [1], the “Effect on apoptosis induced” value is on record as “displayed activity to suppress apoptosis of neurons” and the “Inhibition of apoptosis induction (%)” value came out at 40.6%. The “Effect on apoptosis in kidney cells (in words)” value in the series with NRK52E cells was “suppressed apoptosis induced by GSNO in kidney cells”. In the series on NRK52E cells (setting [4]), the “Incidence of apoptosis (%)” value is given as 6 ± 1 %. Also, in the series with NRK52E cells (setting [5]), the “Incidence of apoptosis (%)” value amounted to 9 ± 2%. Further, in series [2], the “Decrease in blood pressure” value was 0 and the “Hypotensive effect (in words)” value was “substantially causes no decrease in blood pressure”.
Consider “PGT antisense: antisense oligonucleotide specific to PGT, 5′-GGCTTGAGCAGGAGCCCCAT-3′, thioate modified, used with Lipofectin (all phosphorothioate, sugars by position and methylation of C not given here)”, for which the “Effect on PGE1 suppression of SAPK/JNK activation (in words)” value in the series on SAPK/JNK is listed as “inhibited PGE1-suppressing effect”. For the same compound, the “TUNEL-positive cells (%)” value in series [3] (antisense 600 nM, cultured 2 days) was 12.9 ± 1.1%. The “Induction of apoptosis (in words)” value in series [3] (antisense addition) is “apoptosis have been induced”. In addition, the “Amount of PGE1 uptake” value with PGT (PGE1 0.1 μM, antisense 0.5 μM transfected 2 days before) stood at 56 ± 17 fmol/mg protein/10 mins; with PGT (PGE1 0.1 μM, antisense 1.5 μM transfected 2 days before) it was 14 ± 14 fmol/mg protein/10 mins.

Values taken from patent publication US20020127228A1, “PGT and apoptosis” (WELFIDE CORPORATION, priority 1998, published 2002).
